Where two headings read alike, the source gives them in different places. Values belong to the compound of their own block, whether it stands above or below them.
What was measured:
[1] = target: T1, hEP4 receptors (Homo sapiens, UniProt P35408); experiment: [3H]-Prostaglandin E2 membrane binding assay
T1 construct: membrane fraction used
Experimental: (§1) The cDNA clone of human EP4 receptor (NM_000958.2) was obtained from InvitrogenTM: Ultimate™ ORF Clone Collection - Clone ID IOH46525. The coding sequence was subcloned in expression vector pcDNATM6.2/V5-DEST by Gateway technology (InvitrogenTM). Human embryonic kidney cells (HEK-293) were stably transfected with expression vector for human EP4 receptor in according to the method described in FuGENE®6 Transfection Reagent's manual (Roche Applied Science®).
(§2) The EP4 transfected cells were grown in Dulbecco's modified Eagle's medium containing 10% fetal bovine serum and 10 µg/ml Blasticidin S HCl (selection medium) at 37°C in a humidified atmosphere of 5% CO2 in air. For the membrane preparation, cells in flask were harvested by hypotonical/mechanical lysis with chilled (4°C) TE buffer (5mM TRIS, 5mM ethylenediamine tetra-acetic acid (EDTA), pH 7.4). Cells were detached and lysed with 10ml of hypotonic lysis buffer and by scraping. The cell lysate was vortexed for 30 sec and centrifuged at 40000x g at 4°C for 22min.
The membrane pellet was resuspended in the same buffer (5mM TRIS, 5mM ethylenediamine tetra-acetic acid (EDTA), pH 7.4), and protein concentration was determined by Bradford method (Bio-Bad® assay). This membrane preparation was stored at -80°C freezer until use for binding assay. ([^3H]-PGE2) membranes binding assays toward hEP4 receptors (human EP4/HEK293 transfectant, see above) and hEP2 receptors (human EP2/HEK293 transfectant, purchased from PerkinElmer Inc) were performed in 10 mM MES-KOH buffer pH6, containing 10 mM MgCl2 and 1 mM CaCl2 for EP4 binding assay or 50 mM Tris-Cl, BSA 0.5% for EP2 binding assay (according to supplier indication) . Ten microgram of protein from membrane fractions were incubated in a total volume of 0.1ml (EP4) or 0.2ml (EP2) with 1nM (EP4) or 3nM (EP2) [^3H]-PGE2 (PerkinElmer Inc, 171Ci/mmol). In both assays to determine the total binding or non specific binding, 1% DMSO or 1µM prostaglandin E2 (EP4) or 100 µM (EP2) were added to reaction mixtures, respectively. Incubation was conducted in a polypropylene 96 multiwell for 90 min (EP4) or 60 min (EP2) at room temperature prior to separation of the bound and free radioligand by vacuum manifold rapid filtration on glass fiber filters (Unifilter GFB96, PerkinElmer Inc) pre-soaked in 0.3% polyethyleneimine. Filters were washed with ice cold buffer pH 7.4 (50mM HEPES, NaCl 500mM, BSA 0.1% for EP4 binding assay or 50mM Tris-Cl for EP2 binding assays) and the residual [^3H]-PGE2 binding determined by solid scintillation counter (TopCount , PerkinElmer Inc).
The affinity (Ki) of each compound was calculated according to the Cheng-Prousoff equation: Ki = IC50/(1+([C]/Kd)). Results were expressed as pKi (- log10 Ki (M)

[2] = target: T1, hEP4 receptors; experiment: cAMP assay (AlphaScreen) on human EP4 membrane of transfected cells, antagonism of PGE2; type: biochemical; details: HEK293 cell membrane stimulated with PGE2 3nM; read-out: functional IC50
Experimental: as §1, §2
The assay is based on the competition between endogenous cAMP and exogenously added biotinylated cAMP. The capture of cAMP is achieved by using a specific antibody conjugated to Donor beads. Cell membranes prepared as described above, were resuspended in 1 ml stimulation buffer (HBSS 1X + BSA 0.1% + IBMX 0.5mM + HEPES 5mM + MgCl2 10mM + GTP 1 nM + GDP 10µM + ATP 100µM - pH 7.4). Cell membranes were dispensed into white 384-well microplates at final concentration of 1µg/well and used for the determination of cAMP with the alphascreen cAMP functional assay (EnVision - PerkinElmer). Cell membrane/anti-cAMP Acceptor beads mix (5 µl) and a mixture of analysed compounds (dissolved in 100% DMSO to a final maximal concentration of 0.01% DMSO)/PGE2 (5 µl) were incubated at room temperature (22-23°C) for 30 min in the dark. The Biotinylated-cAMP and donor beads (15 µl) were dispensed into each well to start the competition reaction. After 1 h incubation RT (22-23°C) in the dark the plate was read using EnVision platform to determine the cAMP level (excitation: 680nm; emission:520,620nm). In each experiment:
cAMP standard curve (concentration range from 1x10-6 to 1x10-11 M in log intervals) with a negative control (no cAMP)
a positive control: forskolin 10µM
Antagonism studies were performed stimulating HEK293 cell membrane with PGE2 3nM. The AlphaScreen signal is plotted as a function of log concentration of cAMP and functional IC50 is determined. IC50 value is calculated by linear regression.

[3] = Pharmacokinetics after intravenous and oral treatment, plasma LC-MS/MS; type: in vivo, male Han Wistar rats; details: rat; for AUC(0-t) / AUC(0-inf) / half-life / clearance / Vd / Cmax / Tmax / bioavailability: male, Han Wistar, plasma; for AUC(0-inf): extrapolated to infinity; for half-life / clearance / Vd: extrapolated, indicative only; for clearance: read-out: CLp* (converted); for Vd: read-out: Vss*
Experimental: The pharmacokinetics of compounds E7, E17 and E18, were studied in male Han Wistar rats. The rats were treated intravenously and orally (n=3 for each dose route) with compounds formulated as solutions. The rats were fitted with a jugular cannula for serial sampling. A full profile was acquired from each rat. Plasma extracts were quantitatively analyzed using a specific and sensitive LC-MS/MS bioanalytical method. Inter-individual variations between the three rats in each group were limited (CV for pharmacokinetic parameters was below 50%). […] A range of clearance values were obtained for the different structure, ranging from low to moderate values (from 43 to 250 ml/h). After oral administration, absorption was quite fast with a clear maximum concentration reached by the first sampling time-point of 15 minutes for all compounds.

[4] = human EP4/HEK293 transfectant membranes, 1nM [3H]-PGE2, Ki from IC50 by Cheng-Prousoff, pKi = -log10 Ki (M)
[5] = read-out: Binding pKi (converted)

T1 sequence (P35408 whole entry): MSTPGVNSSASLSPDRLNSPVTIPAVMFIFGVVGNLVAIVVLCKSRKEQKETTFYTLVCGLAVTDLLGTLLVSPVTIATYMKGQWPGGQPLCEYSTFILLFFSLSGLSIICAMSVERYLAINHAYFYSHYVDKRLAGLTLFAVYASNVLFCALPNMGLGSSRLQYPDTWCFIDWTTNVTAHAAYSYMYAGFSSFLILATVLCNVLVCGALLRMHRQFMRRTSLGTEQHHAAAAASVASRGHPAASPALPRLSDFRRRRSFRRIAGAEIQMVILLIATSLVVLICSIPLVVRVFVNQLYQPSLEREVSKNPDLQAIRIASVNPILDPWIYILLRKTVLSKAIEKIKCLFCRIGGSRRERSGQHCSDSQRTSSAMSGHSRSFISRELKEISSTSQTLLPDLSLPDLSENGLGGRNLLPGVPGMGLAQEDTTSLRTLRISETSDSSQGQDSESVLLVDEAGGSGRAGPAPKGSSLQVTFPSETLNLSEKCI

SMILES: C[C@H](NC(=O)[C@H]1CCCN1Cc1ccc(C(F)(F)F)cc1)c1ccc(C(=O)O)cc1 [Example E27, lithium 4-((S)-1-((R)-1-(4-(trifluoromethyl)benzyl)pyrrolidine-2-carboxamido)ethyl)benzoate]
IC50 [2]: 0.05 µM

SMILES: C[C@H](NC(=O)C1CC2(CCN1Cc1ccc(C(F)(F)F)cc1)CC2)c1ccc(C(=O)O)cc1 (single isomer, unassigned) [Example E10]
Ki [1, 5]: 3.98e-08 M | IC50 [2]: 0.029 µM

SMILES: O=C(O)c1ccc(C2(NC(=O)[C@H]3CCC4CC4N3Cc3ccc(C(F)(F)F)cc3)CC2)cc1 (stereo partly drawn) [Example E25, 4-(1-((3R)-2-(4-(trifluoromethyl)benzyl)-2-azabicyclo[4.1.0]heptane-3-carboxamido)cyclopropyl)benzoic acid]
Ki [1, 5]: 3.16e-09 M | IC50 [2]: 0.043 µM

SMILES: C[C@H](NC(=O)[C@H]1CCC2CC2N1Cc1ccc(C(F)(F)F)cc1)c1ccc(C(=O)O)cc1 (stereo partly drawn) [Example E26, 4-((1S)-1-((3R)-2-(4-(trifluoromethyl)benzyl)-2-azabicyclo[4.1.0]heptane-3-carboxamido)ethyl)benzoic acid]
Ki [1, 5]: 1.58e-09 M | IC50 [2]: 0.042 µM

SMILES: O=C(O)c1ccc(C2(NC(=O)C3CC4(CCN3Cc3ccc(C(F)(F)F)cc3)CC4)CC2)cc1 (single isomer, unassigned) [Example E7, 4-(1-(6-(4-(trifluoromethyl)benzyl)-6-azaspiro[2.5]octane-5-carboxamido)cyclopropyl)benzoic acid]
AUC(0-t) ([3]; iv, 5 mg/kg): 29200 ng·h/mL | AUC(0-inf) ([3]; iv, 5 mg/kg): 31800 ng·h/mL | half-life ([3]; iv, 5 mg/kg): 7.4 h | clearance ([3]; iv, 5 mg/kg): 0.717 mL/min | Vd ([3]; iv, 5 mg/kg): 0.395 L | AUC(0-t) ([3]; po, 5 mg/kg): 22900 ng·h/mL | Cmax ([3]; po, 5 mg/kg): 5330 ng/mL | Tmax ([3]; po, 5 mg/kg): 0.5 h | bioavailability ([3]; po, 5 mg/kg, absolute oral bioavailability): 78% | AUC(0-inf) ([3]; po, 5 mg/kg): 24900 ng·h/mL | half-life ([3]; po, 5 mg/kg): 6.7 h | Tlast ([3]; iv, 5 mg/kg): 24 h | Tlast ([3]; po, 5 mg/kg): 24 h | Ki [1, 5]: 3.16e-08 M | IC50 [2]: 0.022 µM

SMILES: O=C(O)c1ccc(C2(NC(=O)[C@H]3CCCCN3Cc3ccc(C(F)(F)F)cc3)CC2)cc1 [Example E4, lithium (R)-4-(1-(1-(4-(trifluoromethyl)benzyl)piperidine-2-carboxamido)cyclopropyl)benzoate]
IC50 [2]: 0.032 µM

The next compounds have a lower IC50 [2] than those just listed; values first:

Ki [1, 4]: 5.01e-09 M | IC50 [2]: 0.021 µM
SMILES: O=C(O)c1ccc(C2(NC(=O)[C@H]3C[C@H]4C[C@H]4N3Cc3ccc(C(F)(F)F)cc3)CC2)cc1 [Example E30, 4-(1-((1R,3R,5R)-2-(4-(trifluoromethyl)benzyl)-2-azabicyclo[3.1.0]hexane-3-carboxamido)cyclopropyl)benzoic acid]

Ki [1, 5]: 2.51e-09 M | IC50 [2]: 0.016 µM
SMILES: O=C(O)c1ccc(C2(NC(=O)[C@H]3C[C@H]4C[C@H]4N3Cc3cccc(C(F)(F)F)c3)CC2)cc1 [Example E29, 4-(1-((1R,3R,5R)-2-(3-(trifluoromethyl)benzyl)-2-azabicyclo[3.1.0]hexane-3-carboxamido)cyclopropyl)benzoic acid]

Ki [1, 5]: 1e-08 M | IC50 [2]: 0.0115 µM
SMILES: O=C(O)c1ccc(C2(NC(=O)C3CC4CC4CN3Cc3ccc(C(F)(F)F)cc3)CC2)cc1 (single isomer, unassigned) [Example E23, 4-(1-(3-(4-(trifluoromethyl)benzyl)-3-azabicyclo[4.1.0]heptane-4-carboxamido)cyclopropyl)benzoic acid]

AUC(0-t) ([3]; iv, 1 mg/kg): 1260 ng·h/mL | AUC(0-inf) ([3]; iv, 1 mg/kg): 1390 ng·h/mL | half-life ([3]; iv, 1 mg/kg): 9.3 h | clearance ([3]; iv, 1 mg/kg): 3.17 mL/min | Vd ([3]; iv, 1 mg/kg): 1.7 L | AUC(0-t) ([3]; po, 1 mg/kg): 1170 ng·h/mL | Cmax ([3]; po, 1 mg/kg): 556 ng/mL | Tmax ([3]; po, 1 mg/kg): 0.5 h | AUC(0-inf) ([3]; po, 1 mg/kg): 1200 ng·h/mL | half-life ([3]; po, 1 mg/kg): 5.1 h | bioavailability ([3]; po, 1 mg/kg): 93% | Tlast ([3]; iv, 1 mg/kg): 24 h | Tlast ([3]; po, 1 mg/kg): 24 h | Ki [1, 5]: 6.31e-09 M | IC50 [2]: 0.011 µM
SMILES: O=C(O)c1ccc(C2(NC(=O)C3CC(F)(F)CCN3Cc3ccc(C(F)(F)F)cc3)CC2)cc1 (single isomer, unassigned) [Example E18, 4-(1-(4,4-difluoro-1-(4-(trifluoromethyl)benzyl)piperidine-2-carboxamido)cyclopropyl)benzoic acid]

Ki [1, 4]: 2e-08 M | IC50 [2]: 0.009 µM
SMILES: C[C@H](NC(=O)[C@H]1CC(F)(F)CCN1Cc1ccc(C(F)(F)F)cc1)c1ccc(C(=O)O)cc1 [Example E16, 4-((S)-1-((R)-4,4-difluoro-1-(4-(trifluoromethyl)benzyl)piperidine-2-carboxamido)ethyl)benzoic acid]

Ki [1, 4]: 1.26e-08 M | IC50 [2]: 0.008 µM
SMILES: C[C@H](NC(=O)C1CC(C)(C)CCN1Cc1ccc(C(F)(F)F)cc1)c1ccc(C(=O)O)cc1 (single isomer, unassigned) [Example E13]

Ki [1, 4]: 6.31e-09 M | IC50 [2]: 0.004 µM
SMILES: O=C(O)c1ccc(C2(NC(=O)C3CC4(CCN3Cc3cccc(C(F)(F)F)c3)CC4)CC2)cc1 (single isomer, unassigned) [Example E9, 4-(1-(6-(3-(trifluoromethyl)benzyl)-6-azaspiro[2.5]octane-5-carboxamido)cyclopropyl)benzoic acid]

Reference: EP2729445B1, “CYCLIC AMINE DERIVATIVES AS EP4 RECEPTOR ANTAGONISTS” (Rottapharm Biotech S.r.l., priority 2011, dated 2013)
